Assay results taken from US9615577B2, “Herbicidally active cyclic dione compounds, or derivatives therefor, substituted by a phenyl which has an alkynyl-containing substituent” (Syngenta Limited, priority 2012, dated 2017).

Assays:
Format in all cases: in vivo
[1] = tested on: Alopecurus myosuroides (ALOMY); test: Test 1A glasshouse assay for herbicidal activity, pre-emergence; conditions: 312 h, evaluated after 13 days, read-out: percentage phytotoxicity ALOMY
How it was run: (§1)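 Damage is rated by eye as percent phytotoxicity on a 0–100 scale, 13 days after treatment. Compound is sprayed in acetone/water (50:50) with 0.5% Tween 20 onto pots one day (pre-emergence) or eight days (post-emergence) after sowing, with plants kept at 24/16 °C and 14 h light.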

[2] = tested on: Amaranthus retroflexus (AMARE); test: as above; conditions: 312 h, evaluated after 13 days, read-out: percentage phytotoxicity AMARE
How it was run: as §1

[3] = tested on: Echinochloa crus-galli (ECHCG); test: as above; conditions: 312 h, evaluated after 13 days, read-out: percentage phytotoxicity ECHCG
How it was run: as §1

Setaria faberi (SETFA) [4] = test: as above; conditions: 312 h, evaluated after 13 days, read-out: percentage phytotoxicity SETFA
How it was run: as §1

[5] = tested on: Abutilon theophasti Medik. (ABUTH); test: Test 1A glasshouse assay for herbicidal activity, post-emergence; conditions: 312 h, evaluated after 13 days, read-out: percentage phytotoxicity ABUTH
How it was run: as §1

[6] = tested on: Brachiaria plantaginea (BRAPL); test: Test 1B glasshouse assay for herbicidal activity, pre-emergence; conditions: Urochloa plantaginea, 480 h, 250 g/ha, 20 DAA, read-out: percentage phytotoxicity BRAPL
Experimental: (§2) Seeds of a variety of monocotyledonous and dicotyledonous test plants are sown in standard soil in pots. The plants are cultivated for one day (for pre-emergence) or for about 12 days (range=10-13 days) (for post-emergence) under controlled conditions in a glasshouse (warm climate species at 24/18° C., cool climate species at 20/16° C., both at day/night; 16 hours light; 65% humidity).
(§3) An “instant formulation”, known as the “IF50”, containing 50 g/liter (i.e. 5% w/v) of the “technical” (i.e. unformulated) active ingredient is prepared by dissolving the active ingredient in a mixture of organic solvents and emulsifier, details of which are provided in the Table below. This IF50 is then mixed with a small, variable amount of acetone to aid dissolution, before addition of a 0.2% v/v aqueous solution of the adjuvant X-77 (which is a mixture of alkyl aryl polyoxyethylene glycols and free fatty acids in isopropanol, CAS Registry number 11097-66-8), as the aqueous diluent, to form an aqueous spray solution which contains a predetermined concentration of the active ingredient (which varies depending on the application rate of the active ingredient to the plants) and 0.2% v/v of the adjuvant X-77. This aqueous spray solution is then sprayed onto the plants, after one day's cultivation (for pre-emergence) or after about 12 days' cultivation (for post-emergence).
(§4) The test plants are then grown on, in a glasshouse (greenhouse) under controlled conditions (at either 24/18° C. or 20/16° C. (day/night) as mentioned above; 16 hours light; 65% humidity) and are watered twice daily. Either 15 days after application of the herbicide (15 DAA) (for post-emergence), or 20 days after application of the herbicide (20 DAA) (for pre-emergence), the test plants are evaluated visually, and an assessed percentage phytotoxicity score is given for each herbicidal application on each plant species (where 100%=total damage to plant; 0%=no damage to plant).
(§5) Warm climate (“warm season”) grassy monocotyledonous weeds: Setaria faberi (SETFA), SORVU (Sorghum bicolor (L.) Moench ssp. Bicolor, or Sorghum vulgare Pers.), Digitaria sanguinalis (DIGSA), Echinochloa crus-galli (ECHCG), and Brachiaria plantaginea (BRAPL).

[7] = tested on: Digitaria sanguinalis (DIGSA); test: as above; conditions: 480 h, 250 g/ha, 20 DAA, read-out: percentage phytotoxicity DIGSA
Experimental: as §2, §3, §4, §5

[8] = tested on: Echinochloa crus-galli (ECHCG); test: as above; conditions: 480 h, 250 g/ha, 20 DAA, read-out: percentage phytotoxicity ECHCG
Experimental: as §2, §3, §4, §5

[9] = tested on: SORVU (Sorghum bicolor (L.) Moench ssp. Bicolor, or Sorghum vulgare Pers.); test: as above; conditions: 480 h, 250 g/ha, 20 DAA, read-out: percentage phytotoxicity SORVU
Experimental: as §2, §3, §4, §5

Setaria faberi (SETFA) [10] = test: as above; conditions: 480 h, 250 g/ha, 20 DAA, read-out: percentage phytotoxicity SETFA
Experimental: as §2, §3, §4, §5

[11] = tested on: Alopecurus myosuroides (ALOMY); test: Test 1B glasshouse assay for herbicidal activity, post-emergence; conditions: 360 h; for pest or weed control at 125 g/ha: 125 g/ha application rate
How it was run: (§6)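 Glasshouse spray test, cool-season conditions (20/16 °C, 16 h light, 65% RH). Pre: treated 1 d post-sowing, read 20 DAA. Post: treated ~12 d (10–13 d), read 15 DAA. Readout % visual phytotoxicity.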

Avena fatua (AVEFA) = test: as above; conditions: 360 h; for pest or weed control at 125 g/ha: 125 g/ha application rate
How it was run: as §6

Lolium perenne (LOLPE) = test: as above; conditions: 360 h; for pest or weed control at 125 g/ha: 125 g/ha application rate
How it was run: as §6

[12] = tested on: Brachiaria plantaginea (BRAPL); test: as above; conditions: Urochloa plantaginea; for pest or weed control at 125 g/ha: 125 g/ha application rate
How it was run: (§7)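 Pots of soil were sown and held one day for pre-emergence or about 12 days for post-emergence treatment, then sprayed with an aqueous solution containing 0.2% v/v X-77 adjuvant, prepared from a 50 g/liter IF50 formulation, at rate-dependent concentration. Visual damage scoring followed at 20 or 15 DAA respectively.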

[13] = tested on: SORVU (Sorghum bicolor (L.) Moench ssp. Bicolor, or Sorghum vulgare Pers.); test: as above; conditions: 360 h; for pest or weed control at 125 g/ha: 125 g/ha application rate
How it was run: as §7

[14] = tested on: Echinochloa crus-galli (ECHCG); test: as above; conditions: Echinochloa crus-galli; for pest or weed control at 125 g/ha: 125 g/ha application rate
How it was run: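 Plants grown about 12 days (10–13) in glasshouse (24/18 °C day/night, 16 h light, 65% humidity) then sprayed with IF50 formulation diluted in 0.2% v/v X-77 adjuvant at set application rates. Percent phytotoxicity scored visually 15 days after application (0 = no damage, 100 = total damage).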

Row | Compound | pest or weed control at 250 g/ha [1] | pest or weed control at 250 g/ha [2] | pest or weed control at 250 g/ha [3] | pest or weed control at 250 g/ha (Setaria faberi (SETFA) [4]) | pest or weed control at 250 g/ha [5] | pest or weed control at 250 g/ha [6] | pest or weed control at 250 g/ha [7] | pest or weed control at 250 g/ha [8] | pest or weed control at 250 g/ha [9] | pest or weed control at 250 g/ha (Setaria faberi (SETFA) [10]) | pest or weed control at 125 g/ha [11] | pest or weed control at 125 g/ha (Avena fatua (AVEFA)) | pest or weed control at 125 g/ha (Lolium perenne (LOLPE)) | pest or weed control at 125 g/ha [12] | pest or weed control at 125 g/ha [13] | pest or weed control at 125 g/ha [14] | also measured
1 | CC#Cc1cc(Cl)c(C2C(=O)C3CCC(C3)C2=O)c(OC)c1 (stereo not drawn) [Compound A-12] | 100% | 0% | 100% | 100% | 50 to 60% | 100% | 100% | 100% | 90% | 100% | 70% | 30% | 70% | 100% | 100% | 100% | pest or weed control at 62.5 g/ha ([1]; 62.5 g/ha): 90%; pest or weed control at 62.5 g/ha ([2]; 62.5 g/ha): 0%; pest or weed control at 62.5 g/ha ([3]; 62.5 g/ha): 90%; pest or weed control at 62.5 g/ha (Setaria faberi (SETFA) [4]; 62.5 g/ha): 100%; pest or weed control at 62.5 g/ha ([5]; 62.5 g/ha): 0%; pest or weed control at 30 g/ha ([11]; 30 g/ha application rate): 10%; pest or weed control at 30 g/ha (Avena fatua (AVEFA); 30 g/ha application rate): 0%; pest or weed control at 30 g/ha (Lolium perenne (LOLPE); 30 g/ha application rate): 0%; pest or weed control at 30 g/ha ([12]; 30 g/ha application rate): 70%; pest or weed control at 30 g/ha ([13]; 30 g/ha application rate): 80%; pest or weed control at 30 g/ha ([14]; 30 g/ha application rate): 90%
2 | CC#Cc1cc(C)c(C2C(=O)CC(c3ccccn3)CC2=O)c(C)c1 (stereo not drawn) [Compound A-13] | 100% | 80% | 100% | 100% | 80% | 90% | 100% | 90% | 80% | 80% | 30% | 20% | 70% | 100% | 80% | 80% | pest or weed control at 30 g/ha ([1]; 30 g/ha): 70%; pest or weed control at 30 g/ha ([2]; 30 g/ha): 100%; pest or weed control at 30 g/ha ([3]; 30 g/ha): 100%; pest or weed control at 30 g/ha (Setaria faberi (SETFA) [4]; 30 g/ha): 70%; pest or weed control at 30 g/ha ([5]; 30 g/ha): 40%
